# Laboratory results taken from patent publication US11357749B2, “Methods for treating neutropenia” (Enzychem Lifesciences Corporation, priority 2014, dated 2022).
# What was measured:
# [1] = system: neutrophils; assay: Pilot study in pancreatic cancer patients receiving chemotherapy: neutrophils (ANC); type: in vivo, human; settings: 16 patients, Gemcitabine and Erlotinib, PLAG 1,000 mg once per day orally, two cycles
# Procedure: PLAG is administered to sixteen pancreatic cancer patients after chemotherapy. The subjects of this study are unoperable pancreatic cancer patients with ECOG (Eastern Cooperative Oncology Group) performance status of “0” or “1”, i.e. patients in good physical condition without much pain, able to enjoy almost normal lifestyle and thus, eligible for anticancer treatment for at least 2 months. The pancreatic cancer patients are “locally advanced” patients having tumor metastasis to the major vessels around pancreas or “Distant metastasis” patients with distant metastasis to liver, lung, bone, etc. ECOG performance status “0” refers to a patient who is asymptomatic, fully active, able to carry on all predisease activities without restriction with no pain and no problem for normal lifestyle, while “1” refers to a patient who is symptomatic but completely ambulatory with mile pain and a little problem for normal life. Anticancer (Gemcitabine and Erlotinib combo treatment) Regimen is as follows: 1,000 mg of Gemcitabine is injected once a week for three weeks (Day 1, Day 8, Day 15), and is not injected in the next one week (Day 22). Therefore, 1 cycle of anticancer treatment requires 1 month. 100 mg of Erlotinib (Tarceva) is administered once per day everyday orally. 1,000 mg of PLAG is also administered once per day orally, starting from 3 days before anticancer treatment until the last chemotherapy treatment. The PLAG treatment group and control group both completed two cycles of anticancer treatment. There is no difference among the control and PALG treatment groups in the amount or schedule of anticancer treatment.
# [2] = system: platelets; assay: Phenylhydrazine-induced platelet reduction in mice; type: in vivo; settings: PHZ 100 mg/kg i.p. + PLAG 5 mg/kg oral
# Procedure: (§1) Mice are injected with 100 mg/kg phenylhydrazine (PHZ), i.p., to induce anemia and reduction of platelets. 5 mg/kg PLAG is administered to the mice orally and blood samples are taken at 3 and 13 days after. In addition, for comparison, normal mice which are not treated with phenylhydrazine are prepared as a normal group, and mice treated with PHZ and olive oil instead of PLAG are prepared as a control group. The blood samples taken from the mice are treated with 0.5 ml EDTA (Minicollect tube, Greiner bio-one, Austria) and concentration of platelet is measured using automated blood sample analyzer BC-6800 (Mindray, Shenzhen, China) by number of platelet per […] (k: 1,000).
# [3] = system: sepsis; settings: sepsis animal model, cecal-ligation-puncture; stated as known; cited from earlier work
# [4] = system: splenic nodules, primitive progenitor cells and megakaryocytes; assay: Colony forming units in spleen (CFUs) assay in heavily irradiated mice; type: in vivo; settings: 50 mg/kg/d i.p. or p.o.
# Procedure: In order to determine the in vivo effect of PLAG on the recovery of hematopoiesis, a CFUs assay is performed in heavily irradiated mice.
# [5] = system: STAT1; assay: STAT1 transcriptional activity reporter assay in HepG2 cells; type: cell-based, human; settings: HepG2, 10 ng IFN-γ, PLAG 0.01-10 μg/ml, 12 hours
# Procedure: (§2) By using STAT6 inhibitor (S6I), it is confirmed that the reduction of Complement 3 in HepG2 cells (human hepatocyte cell line) is regulated by STAT6. […] It is also confirmed that PLAG has selective efficacy on STAT6 over STAT1. FIG. 1 presents graphs showing STAT1 and STAT6 transcriptional activity in the PLAG treated HepG2 cells. NC refers to the unstimulated control cell. For the STAT1 assay, gene transfected HepG2 (human hepatocyte cell line) is treated with 10 ng of IFN-γ and serially diluted PLAG is added (0.01 μg/ml, 0.1 μg/ml, 1 μg/ml, and 10 μg/ml as shown) to see its effect on gene expression in the stimulated cell. For the STAT6 assay, gene transfected HepG2 cells are treated with 10 ng of IL-4 and again serially diluted PLAG is added (0.01 μg/ml, 0.1 μg/ml, 1 μg/ml, and 10 μg/ml as shown) to see its effect on gene expression in the stimulated cell. The assay is carried out following 12 hours incubation of treated cells.
# [6] = system: C3; assay: C3 protein by ELISA in HMC-1 cells; type: cell-based, human; settings: HMC-1, PLAG 1, 10 and 100 μg/mL for 2 hours, 72 hours activation with 10% FBS
# Procedure: In a separate experiment, human mast cells (HMC-1, 1×10^5 cell/ml) are treated with PLAG of various concentrations (1, 10 and 100 μg/mL) for 2 hours. The cells are activated for 72 hours with 10% FBS (Fetal bovine serum) containing IMDM. The decrease of C3 is confirmed by ELISA analysis of the expressed protein.
# [7] = system: STAT6; assay: STAT6 transcriptional activity reporter (luciferase) assay in HepG2 cells; type: cell-based, human; settings: HepG2, 10 ng IL-4, PLAG 0.01-10 μg/ml, 12 hours
# Procedure: as §2
# [8] = system: STAT6; assay: IL-4 induced STAT6 phosphorylation, western blot in U937, A549 and Jurkat cells; type: cell-based; settings: PLAG 0.01 to 10 μg/ml, 10 ng/ml IL-4, 15 min
# Procedure: Dephosphorylation of STAT6 is examined using anti-phosphorylated STAT6 in U937, A549, and Jurkat cell lysates treated with PLAG concentration from 0.01 to 10 μg/ml. Phosphorylation of STAT6 is induced by treatment with 10 ng/ml of IL-4. Dephosphorylation of STAT1 is examined in the U937 cell lysate treated with PLAG (0.01 to 10 μg/ml). Phosphorylation of STAT1 is induced by 10 ng of IFN-γ treatment. Dephosphorylation of STAT1 and STAT6 is examined at 15 min after stimulation with IFN-γ and IL-4 respectively, in the PLAG pretreated cells. […] The transcriptional activity of STAT6 is decreased by the dephosphorylation of STAT6. […] No effect of PLAG on STAT1 phosphorylation is observed.
# [9] = system: platelets; assay: Lipopolysaccharide-induced platelet reduction in mice; type: in vivo; settings: 15 hours
# Procedure: as §1
# The experiment is repeated using Tamoxifen (Tam), an anticancer agent, injected at the amount of 100 mg/kg, or lipopolysaccharide (LPS), an inflammation inducer, at the amount of 1 mg/kg to induce platelet reduction. Platelet concentration is measured 15 hours after PLAG treatment. For comparison, olive oil and PBS are used instead of PLAG as controls, respectively for the Tamoxifen and lipopolysaccharide experiment.
compound,measurement,setting,value
"CCCCC/C=C\C/C=C\CCCCCCCC(=O)OC(COC(C)=O)COC(=O)CCCCCCCCCCCCCCC (racemic) [PLAG, 1-palmitoyl-2-linoleoyl-3-acetylglycerol]","patients with neutrophil (ANC) decrease to less than 1,500/μl",[1],37.5%
same,patients with neutrophil decrease to less than 500/μl,[1],none
same,"patients with neutrophil decrease to less than 1,000/μl",[1],18.8%
same,patients with neutrophil number decrease to less than 50%,[1],37.5%
same,patients with neutrophil number decrease to less than 60%,[1],18.8%
same,patients with neutrophil number decrease to less than 75%,[1],none
same,Platelet (day 3) Conc,[2]; day 3,1072 ± 125.4 k/ul
same,Platelet (day 13) Conc,[2]; day 13,1188.8 ± 115.6 k/ul
same,survivability ratio of animals,[3],increases survivability ratio
same,number of splenic nodules and numbers of primitive progenitor cells and megakaryocytes,[4],marked increase
same,STAT1 expression (transcriptional activity),[5],no effect
same,decrease of C3 (ELISA),[6],proportional to the concentration of PLAG
same,transcriptional activity of STAT6,[7],gradually decreased
same,IL-4 induced STAT6 phosphorylation,[8]; A549 cells,inhibited with increasing PLAG concentrations
same,IL-4 induced STAT6 phosphorylation,[8]; Jurkat cells,inhibited with increasing PLAG concentrations
same,IL-4 induced STAT6 phosphorylation,[8]; U937 cells,inhibited with increasing PLAG concentrations
same,Platelet Conc.,[9]; LPS 1 mg/kg + PLAG 1 mg/kg,450.00 k/ul
same,Platelet Conc.,[9]; LPS 1 mg/kg + PLAG 2 mg/kg,553.33 k/ul
